# Test system: MOLM-13
# Assay: Antiproliferative activity against human MOLM-13 cells assessed as reduction in cell viability incubated for 72 hrs by CellTiter-Glo assay
# Assay type: functional, cell-based
# Settings: MOLM-13, 72 h
row,SMILES,IC50 [nM]
1,Cc1cn(-c2cc(O[C@@H](C)C(F)(F)F)c(C(=O)Nc3c(F)cccc3Cl)cc2F)nc1[C@@H](C)O,0.08
2,Cc1cn(-c2cc(O[C@@H](C)C(F)(F)F)c(C(=O)Nc3c(F)cccc3Cl)cc2F)nc1[C@H](C)O,0.03
3,Cc1cn(-c2cc(O[C@@H](C)C(F)(F)F)c(C(=O)Nc3c(C)n[nH]c3Cl)cc2F)nc1[C@H](C)O,0.21

# Now from value to compound:
row,IC50 [nM],SMILES
1,0.07,Cc1cn(-c2cc(O[C@@H](C)C(F)(F)F)c(C(=O)Nc3c(F)cccc3Cl)cc2F)nc1C(C)(C)O
2,0.26,Cc1cn(-c2cc(O[C@@H](C)C(F)(F)F)c(C(=O)Nc3c(C)n[nH]c3Cl)cc2F)nc1[C@@H](C)O
3,0.09,Cc1cn(-c2cc(O[C@@H](C)C(F)(F)F)c(C(=O)Nc3c(C)n[nH]c3Cl)cc2F)nc1C(C)(C)O

# — ChEMBL document CHEMBL5360604, “Novel Dihydroorotate Dehydrogenase Inhibitors for Treating Acute Myelogenous Leukemia” (ACS Med Chem Lett, 2023)
